The values below come from article PMC11301756, “The crystal structure of Shethna protein II (FeSII) from Azotobacter vinelandii suggests a domain swap” (Acta Crystallographica Section D: Structural Biology, 2024).

Data set [1] concerns the target T1, FeSII (Shethna protein II) (Azotobacter vinelandii, UniProt Q44501).
T1 construct: synthetic gene in pRSET-A, no tag, expressed in E. coli KRX; about 13 kDa; dimer in solution; prepared aerobically (oxidized)
T1 sequence (Q44501 2-122 limits assumed): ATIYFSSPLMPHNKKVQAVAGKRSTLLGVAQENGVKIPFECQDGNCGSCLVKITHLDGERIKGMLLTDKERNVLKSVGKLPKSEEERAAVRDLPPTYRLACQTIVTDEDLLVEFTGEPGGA
Put plainly: X-ray crystal structure (Fe-SAD). In kind it is binding. Conditions: intrinsic cluster, protein prepared and crystallized aerobically (oxidized); pH 8.0; five copies in asymmetric unit, one closed and four open (domain-swapped).

Data set [2] deals with the molecule itself. Put plainly: crystal structure; FeSII alone, hanging-drop vapour diffusion, 0.1 M HEPES pH 8.0, 0.2 M sodium citrate, 24% PEG 3350, 2% 1-butanol, 40 mg/ml FeSII; P2(1)2(1)2, 1.65 Å, Fe-SAD; dimers between chains and crystallographic symmetry mates.

On to `[S]1[Fe][S][Fe]1` [2Fe–2S cluster], for which, in data set [1], the “X-ray crystal structure (Fe-SAD), 1.65 A” value is recorded as “In chain E (salmon) in the crystal, the lid helix from chain E covers the iron–sulfur cluster”.

B1: Shethna protein II (FeSII) from Azotobacter vinelandii (natural protein, UniProt Q44501 1-122, looked up)
chain: MATIYFSSPLMPHNKKVQAVAGKRSTLLGVAQENGVKIPFECQDGNCGSCLVKITHLDGERIKGMLLTDKERNVLKSVGKLPKSEEERAAVRDLPPTYRLACQTIVTDEDLLVEFTGEPGGA
notes: FeSII (Shethna protein II), adrenodoxin-type 2Fe-2S ferredoxin of Azotobacter vinelandii, locus AVIN_39700; synthetic gene in pRSET-A with no tag, amplified with primers from the start codon (ATGGCGACGATCTATTTCAGCAGC) to the stop codons; Carries a 2Fe-2S cluster; prepared aerobically (oxidized); Five copies in the asymmetric unit of the crystal; also called FeSII protein; source: E. coli …
Consider B1, for which, in data set [2], the binding result is “binds”.
